5 molecules from patent publication US5075299A, “Cephalosporin compounds and antibacterial agents” (Meiji Seika Kaisha, Ltd., priority 1988, dated 1991) can be followed below.

≈ marks a conversion by molar mass, not a printed value. Where two headings read alike, the source gives them in different places. Some results are limits rather than exact numbers.

Data set [1] has as its system Serratia marcescens GN629. The data set can be described thus: antibacterial activity, agar dilution method. The format is cell-based. A general note: In agar dilution the substance is mixed into plates at graded concentrations.
A further data set concerns Proteus rettgeli GN624. Kind of data set: antibacterial activity, agar dilution method. Format: cell-based. The conditions noted are these: read-out: Antibacterial Activity MIC.
Data set [2] has as its system Klebsiella pneumoniae GN118. Kind of data set: antibacterial activity, agar dilution method. Format: cell-based.
The test system of data set [3] is Pseudomonas aeruginosa MB3833. The data set can be described thus: antibacterial activity, agar dilution method. The format is cell-based.
The test system of the next data set is Escherichia coli GN206. The data set can be described thus: antibacterial activity, agar dilution method. The format is cell-based.
The test system of data set [4] is Citrobacter froindii GN346. Kind of data set: antibacterial activity, agar dilution method. Format: cell-based.
Data set [5] has as its system Pseudomonas aeruginosa IAM-1007. Kind of data set: antibacterial activity, agar dilution method. The format is cell-based.
For data set [6], the system named is Escherichia coli W3630 RGN238. Kind of data set: antibacterial activity, agar dilution method. The conditions noted are these: W3630RGN238, read-out: Antibacterial Activity MIC. The format is cell-based.
For data set [7], the system named is Staphylococcus aureus 606 E-25. The data set can be described thus: antibacterial activity, agar dilution method. Format: cell-based.
In another data set the test system is mice. The data set can be described thus: acute toxicity using mice. The format is in vivo. The following applies: dose of 2 g/kg by intravenous injection. An excerpt: Acute toxicity of the compound of Example 2 was examined using mice.
Setting [8] is: Klebsiella pneumoniae, GN118, read-out: Antibacterial Activity MIC.
[9] abbreviates: Serratia marcescens GN629, agar dilution method, read-out: Antibacterial Activity MIC.
The mark [10] stands for this setting: Proteus rettgeli GN624, agar dilution method.
Setting [11] is: Klebsiella pneumoniae GN118, agar dilution method, read-out: Antibacterial Activity MIC.
Where [12] appears, read: Pseudomonas aeruginosa MB3833, agar dilution method, read-out: Antibacterial Activity MIC.
[13] abbreviates: Escherichia coli GN206, agar dilution method, read-out: Antibacterial Activity MIC.
The mark [14] stands for this setting: Citrobacter froindii GN346, agar dilution method, read-out: Antibacterial Activity MIC.
The mark [15] stands for this setting: IAM1007, Pseudomonas aeruginosa IAM-1007, agar dilution method, read-out: Antibacterial Activity MIC.
[16] abbreviates: 606E25, Staphylococcus aureus 606 E-25, agar dilution method, read-out: Antibacterial Activity MIC.

With `CC(C)(O/N=C(\C(=O)N[C@@H]1C(=O)N2C(C(=O)[O-])=C(C[n+]3ccccc3)CS[C@H]12)c1csc(N)n1)C(=O)O` [CAZ, reference compound], the MIC amounted to 0.39 µg/mL (≈ 0.714 µM) in [1] (Serratia marcescens, GN629, read-out: Antibacterial Activity MIC); 1.56 µg/mL (≈ 2.85 µM) with Proteus rettgeli GN624; 0.78 µg/mL (≈ 1.43 µM) in data set [2] (setting [8]); 0.78 µg/mL (≈ 1.43 µM) in data set [3] (Pseudomonas aeruginosa, MB3833, read-out: Antibacterial Activity MIC); 1.56 µg/mL (≈ 2.85 µM) in the data set with Escherichia coli GN206 (Escherichia coli, GN206, read-out: Antibacterial Activity MIC); 50 µg/mL (≈ 91.5 µM) in data set [4] (Citrobacter, GN346, read-out: Antibacterial Activity MIC). For the same molecule, the minimal inhibitory concentration (MIC) was found to be 1.56 µg/mL (≈ 2.85 µM) in [5] (Pseudomonas aeruginosa, IAM1007, read-out: Antibacterial Activity MIC); 0.39 µg/mL (≈ 0.714 µM) in data set [6]; 12.5 µg/mL (≈ 22.9 µM) in data set [7] (Staphylococcus aureus, 606E25, read-out: Antibacterial Activity MIC).

With `CO/N=C(\C(=O)N[C@@H]1C(=O)N2C(C(=O)O)=C(COC(C)=O)CS[C@H]12)c1csc(N)n1` [CTX, reference compound], the MIC in [1] (setting [9]) was found to be 0.39 µg/mL (≈ 0.856 µM); in the data set on Proteus rettgeli GN624 (setting [10]) it was 1.56 µg/mL (≈ 3.43 µM); in data set [2] (setting [11]), 0.05 µg/mL (≈ 0.11 µM); in data set [3] (setting [12]), 12.5 µg/mL (≈ 27.4 µM); in the data set with Escherichia coli GN206 (setting [13]) it was 1.56 µg/mL (≈ 3.43 µM); in data set [4] (setting [14]), 12.5 µg/mL (≈ 27.4 µM). In addition, the MIC in [5] (setting [15]) was 12.5 µg/mL (≈ 27.4 µM); in data set [6], 0.2 µg/mL (≈ 0.439 µM); in data set [7] (setting [16]), 1.56 µg/mL (≈ 3.43 µM).

With `Cc1c(O)c(=O)cc(CO/N=C(\C(=O)NC2C(=O)N3C(C(=O)O)=C(CSc4cnns4)CSC23)c2csc(N)n2)n1O` (stereo not shown) [Example 2, 7-((Z)-2-(2-Aminothiazol-4-yl)-2-(6-methyl-1,5-dihydroxy-4-pyridon-2-ylmethoxyimino)acetamido)-3-(1,2,3-thiadiazol-5-yl-thiomethyl)-3-cephem-4-carboxylic acid], the MIC in [1] (setting [9]) is 0.05 µg/mL (≈ 0.0766 µM); with Proteus rettgeli GN624 (setting [10]), 0.1 µg/mL (≈ 0.153 µM); in [2] (setting [11]), below 0.025 µg/mL; in data set [3] (setting [12]), below 0.025 µg/mL; in the data set on Escherichia coli GN206 (setting [13]) it was 0.39 µg/mL (≈ 0.598 µM); in [4] (setting [14]), 6.25 µg/mL (≈ 9.58 µM). The values for the MIC in data set [5] (setting [15]), in [6] and in data set [7] (setting [16]) were below 0.025 µg/mL, below 0.025 µg/mL and 12.5 µg/mL (≈ 19.2 µM), respectively. Also, in the data set on mice, the “Acute toxicity (death)” value is on record as “no death was noted”.

For `Cc1c(O)c(=O)cc(CO/N=C(\C(=O)NC2C(=O)N3C(C(=O)O)=C(CSc4nnnn4C)CSC23)c2csc(N)n2)n1O` (stereo not shown) [Example 4, 7-((Z)-2-(2-Aminothiazol-4-yl)-2-(6-methyl-1,5-dihydroxy-4-pyridon-2-ylmethoxyimino)acetamido)-3-(1-methyl-1H-tetrazol-5-ylthiomethyl)-3-cephem-4-carboxylic acid], the MIC is 0.05 µg/mL (≈ 0.0768 µM) in data set [1] (setting [9]); 0.05 µg/mL (≈ 0.0768 µM) in the data set with Proteus rettgeli GN624 (setting [10]); below 0.025 µg/mL in [2] (setting [11]); below 0.025 µg/mL in [3] (setting [12]); 0.1 µg/mL (≈ 0.154 µM) in the data set with Escherichia coli GN206 (setting [13]); 6.25 µg/mL (≈ 9.61 µM) in data set [4] (setting [14]). Also, the MIC in data set [5] (setting [15]) was below 0.025 µg/mL; in data set [6] it was below 0.025 µg/mL; in data set [7] (setting [16]), 25 µg/mL (≈ 38.4 µM).

Regarding `Cc1cc(=O)c(O)c(CO/N=C(\C(=O)NC2C(=O)N3C(C(=O)O)=C(CSc4cnns4)CSC23)c2csc(N)n2)n1O` (stereo not shown) [Example 6], the MIC in data set [1] (setting [9]) was 0.2 µg/mL (≈ 0.306 µM); with Proteus rettgeli GN624 (setting [10]), 0.1 µg/mL (≈ 0.153 µM); in [2] (setting [8]) it was below 0.025 µg/mL; in data set [3] (setting [12]), 0.39 µg/mL (≈ 0.598 µM); with Escherichia coli GN206 (setting [13]) it was 0.78 µg/mL (≈ 1.2 µM); in [4] (setting [14]), 6.25 µg/mL (≈ 9.58 µM). Further, the MIC is 0.39 µg/mL (≈ 0.598 µM) in data set [5] (setting [15]), 0.05 µg/mL (≈ 0.0766 µM) in data set [6] and 1.56 µg/mL (≈ 2.39 µM) in data set [7] (setting [16]).

As usually defined, the MIC is the least concentration at which growth counts as inhibited.
